System: 317291-083-R-J1-PDC complex spheroid growth
Assay: Anticancer human tumor 317291-083-R-J1-PDC patient-derived soft tissue sarcoma cell line growth inhibition [Asc]
Details: for IC50: curve of first compound; for viability, T/C: stronger effect = lower value
Method: Multicellular complex tumor spheroid response to apoptosis pathway targeting inhibitors Alrizomadlin, Pelcitoclax, and Dasminapant in combination with a variety of drugs and investigational agents in selected tumor cell lines
The MDM2 inhibitor alrizomadlin, the Bcl-2/Bcl-xL inhibitor pelcitoclax, and the IAPs inhibitor dasminapant were evaluated both individually and in combination with standard of care and investigational anticancer small molecules within a complex spheroid model of solid tumors. . Complex spheroids include a stromal component modeled by human endothelial cells (HUVEC) and fibroblasts modeled by human mesenchymal stem cells (MSCs). The concentration ranges selected for each drug and investigational agent were based upon clinically achievable concentrations if the clinical Cmax of the agent was known.
Compounds. The drugs and investigational agents: alrizomadlin (APG-115; NSC831270), pelcitoclax (APG-1252; NSC835773), dasminapant (APG-1387;NSC834197), TAK-243 (NSC785004), copanlisib (NSC809693), olaparib (NSC753686), talazoparib (NSC767125), cobimetinib (NSC 768068), eltanexor (KPT-8602, NSC 794443), abemaciclib (NSC 768073), sotorasib (NSC818433), adagrasib (NSC 831453), MRTX-1133 (NSC 836407), Iadademestat (ORY1001, NSC 806812), and RMC-4630 (NSC839698), were obtained from the NCI Developmental Therapeutics Program Chemical Repository. The FDA-approved anticancer drug set is available from the Developmental Therapeutics Program at https://dtp.cancer.gov/organization/dscb/obtaining/available plates.htm. […] The stock solutions were prepared in dimethyl sulfoxide (DMSO, Sigma-Aldrich, St. Louis, MO, cat. D2650) at 800-fold the tested concentration and stored at -70 degrees C prior to their use. All drugs and investigational agents were tested over a range starting from a high concentration at or near the clinical Cmax and decreasing in half-log increments. If the clinical Cmax for an agent had not been determined, the highest concentration tested was 10 microM.
The patient-derived cancer (PDC) cell lines include five colon adenocarcinomas: 186277-243-T-J2-PDC, 616215-338-R-J1-PDC, 439559-082-T-J2-PDC, 463943-066-T-J2-PDC, and 519858-162-T-J1-PDC; three pancreatic carcinomas: 323965-272-R-J2-PDC, 521955-158-R6-J3-PDC, and 521955-158-R2-J5-PDC; two uterine sarcomas: 327498-152-R-J2-PDC and 993429-296-R-J1-PDC; two rhabdomyosarcomas: 755483-174-R-J1-PDC and 772245-204-R-J1-PDC; two soft tissue sarcomas: 126254-015-R-J1-PDC and 494315-158-R-J1-PDC; two malignant fibrous histiocytomas: 317291-083-R-J1-PDC and 596521-263-R-J1-PDC; two breast carcinomas: 171881-019-R-J1-PDC and 885512-296-R-J2-PDC; and one ovarian carcinoma: 6556581-035-R-J-PDC were obtained from the NCI PDMR, (https://pdmr.cancer.gov). The established cell lines HSSY-2 synovial sarcoma (RRID:CVCL 8719), SYO-1 synovial sarcoma (RRID:CVCL_7146), MPNST malignant peripheral neural sheath tumor were obtained from the Sloan Kettering Institute. The following established cell lines were purchased from the American Type Culture Collection (ATCC, Manassas, VA), Sor the received from the NCI repository:, PANC-1 pancreatic carcinoma (CRL-1469, RRID:CVCL_0480), OVCAR-5 ovarian carcinoma (RRID:CVCL_1628), OVCAR-8 ovarian carcinoma (RRID:CVCL_1629), , MCF-7 breast carcinoma (CRL-12584, RRID:CVCL_0031), MDA-MB-231 breast carcinoma (CRL-12532, RRID:CVCL_0062), NCI-H1876 small cell lung carcinoma (CRL-5902, RRID:CVCL_1503), NCI-H510A small cell lung carcinoma (HTB-184, RRID:CVCL_1565), NCI-H1417 (CRL-5869, RRID:CVCL_1469), and NCI-H196 small cell lung carcinoma (CRL-5823, RRID:CVCL_1509). Dr. Peter Houghton (Greehey Children's Cancer Research Institute, University of Texas Health Science Center, San Antonio, TX) provided Rh-18 rhabdomyosarcoma (RRID:CVCL_1659). Pooled donor human umbilical vein endothelial cells (HUVEC, Lonza, cat. CC-2519) and human mesenchymal stem cells (hMSC, Lonza, cat. PT-2501) were purchased from Lonza (Walkersville, MD).
Cell Culture. […]

[1] = second compound 0.00949 µM, first compound 0.00316 µM
[2] = second compound 0.00949 µM, first compound 0.01 µM
[3] = second compound 0.00949 µM, first compound 0.0316 µM
[4] = second compound 0.00949 µM, first compound 0.1 µM
[5] = second compound 0.00949 µM, first compound 0.316 µM
[6] = second compound 0.00949 µM, first compound 1 µM
[7] = second compound 0.03 µM, first compound 0.00316 µM
[8] = second compound 0.03 µM, first compound 0.01 µM
[9] = second compound 0.03 µM, first compound 0.0316 µM
[10] = second compound 0.03 µM, first compound 0.1 µM
[11] = second compound 0.03 µM, first compound 0.316 µM
[12] = second compound 0.03 µM, first compound 1 µM
[13] = second compound 0.0949 µM, first compound 0.00316 µM
[14] = second compound 0.0949 µM, first compound 0.01 µM
[15] = second compound 0.0949 µM, first compound 0.0316 µM
[16] = second compound 0.0949 µM, first compound 0.1 µM
[17] = second compound 0.0949 µM, first compound 0.316 µM
[18] = second compound 0.0949 µM, first compound 1 µM
[19] = second compound 0.3 µM, first compound 0.00316 µM
[20] = second compound 0.3 µM, first compound 0.01 µM
[21] = second compound 0.3 µM, first compound 0.0316 µM
[22] = second compound 0.3 µM, first compound 0.1 µM
[23] = second compound 0.3 µM, first compound 0.316 µM
[24] = second compound 0.3 µM, first compound 1 µM
[25] = second compound 0.949 µM, first compound 0.00316 µM
[26] = second compound 0.949 µM, first compound 0.01 µM
[27] = second compound 0.949 µM, first compound 0.0316 µM
[28] = second compound 0.949 µM, first compound 0.1 µM
[29] = second compound 0.949 µM, first compound 0.316 µM
[30] = second compound 0.949 µM, first compound 1 µM
[31] = second compound 3 µM, first compound 0.00316 µM
[32] = second compound 3 µM, first compound 0.01 µM
[33] = second compound 3 µM, first compound 0.0316 µM
[34] = second compound 3 µM, first compound 0.1 µM
[35] = second compound 3 µM, first compound 0.316 µM
[36] = second compound 3 µM, first compound 1 µM
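Also: compound exposure lasted seven days after spheroids formed for three days.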
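For viability, T/C in this document: 100% = DMSO vehicle control wells.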

CCN1CCN(Cc2ccc(Nc3ncc(F)c(-c4cc(F)c5nc(C)n(C(C)C)c5c4)n3)nc2)CC1 + CCN1C(C(=O)NC23CCC(C(=O)O)(CC2)CC3)C(c2cccc(Cl)c2F)C2(C(=O)Nc3cc(Cl)ccc32)C12CCCCC2
IC50 (second compound 0.00949 µM): > 1000 nM
IC50 (second compound 0.03 µM): > 1000 nM
IC50 (second compound 0.0949 µM): 814 nM
IC50 (second compound 0.3 µM): > 1000 nM
IC50 (second compound 0.949 µM): 837 nM
IC50 (second compound 3 µM): > 1000 nM
viability, T/C [1]: 95%
viability, T/C [2]: 95.8%
viability, T/C [3]: 100%
viability, T/C [4]: 115%
viability, T/C [5]: 91.2%
viability, T/C [6]: 55.4%
viability, T/C [7]: 99.7%
viability, T/C [8]: 101%
viability, T/C [9]: 97.9%
viability, T/C [10]: 103%
viability, T/C [11]: 80.1%
viability, T/C [12]: 53%
viability, T/C [13]: 97.7%
viability, T/C [14]: 89.3%
viability, T/C [15]: 97%
viability, T/C [16]: 112%
viability, T/C [17]: 88.4%
viability, T/C [18]: 41.6%
viability, T/C [19]: 100%
viability, T/C [20]: 93.1%
viability, T/C [21]: 80.6%
viability, T/C [22]: 86.4%
viability, T/C [23]: 68.1%
viability, T/C [24]: 79.6%
viability, T/C [25]: 106%
viability, T/C [26]: 96.7%
viability, T/C [27]: 79.1%
viability, T/C [28]: 91.1%
viability, T/C [29]: 73.1%
viability, T/C [30]: 44.5%
viability, T/C [31]: 77.5%
viability, T/C [32]: 77%
viability, T/C [33]: 78.9%
viability, T/C [34]: 72.2%
viability, T/C [35]: 56.6%
viability, T/C [36]: 60.9%

O=C(c1ccc(F)c(F)c1Nc1ccc(I)cc1F)N1CC(O)([C@@H]2CCCCN2)C1 + CCN1C(C(=O)NC23CCC(C(=O)O)(CC2)CC3)C(c2cccc(Cl)c2F)C2(C(=O)Nc3cc(Cl)ccc32)C12CCCCC2
IC50 (second compound 0.00949 µM): 540 nM
IC50 (second compound 0.03 µM): 448 nM
IC50 (second compound 0.0949 µM): 549 nM
IC50 (second compound 0.3 µM): 526 nM
IC50 (second compound 0.949 µM): 528 nM
IC50 (second compound 3 µM): 389 nM
viability, T/C [1]: 101%
viability, T/C [2]: 89%
viability, T/C [3]: 106%
viability, T/C [4]: 101%
viability, T/C [5]: 71.9%
viability, T/C [6]: 24.8%
viability, T/C [7]: 91.2%
viability, T/C [8]: 94.8%
viability, T/C [9]: 85%
viability, T/C [10]: 117%
viability, T/C [11]: 64.9%
viability, T/C [12]: 15.8%
viability, T/C [13]: 103%
viability, T/C [14]: 90.8%
viability, T/C [15]: 98.2%
viability, T/C [16]: 113%
viability, T/C [17]: 69.8%
viability, T/C [18]: 28.4%
viability, T/C [19]: 124%
viability, T/C [20]: 95.1%
viability, T/C [21]: 86.3%
viability, T/C [22]: 107%
viability, T/C [23]: 71.4%
viability, T/C [24]: 23%
viability, T/C [25]: 105%
viability, T/C [26]: 105%
viability, T/C [27]: 114%
viability, T/C [28]: 104%
viability, T/C [29]: 72.2%
viability, T/C [30]: 22.4%
viability, T/C [31]: 105%
viability, T/C [32]: 92.7%
viability, T/C [33]: 96.8%
viability, T/C [34]: 90.2%
viability, T/C [35]: 55.4%
viability, T/C [36]: 24.8%

Reference: PubChem BioAssay AID1963427 (Molecular Pharmacology Branch, DTP, NCI, 2024)
